Where two headings read alike, the source gives them in different places.
Legend:
Dendritic cells [1] = assay: Induction of IL-12 secretion in dendritic cells (ELISA); type: cell-based, BALB/c mice; conditions: for IL-12 RELEASE: dendritic cells, compounds 50 μg/ml and 20 μg/ml, 24 hrs (or 48 hrs)
Protocol: BALB/c male and female mice bred and maintained at the University of Strathclyde under conventional conditions were used at 8 weeks old.
Bone marrow was obtained from the femurs of mice. The femurs were washed in 70% ethanol and placed in a clean petri dish. Dendritic cell (DC) medium (2.5% granulocyte-macrophage colony-stimulating factor (GM-CSF), 10% […] foetal calf serum, 1% L-glutamine, 1% Penicillin/Streptomycin in RPMI-1640 medium) was injected into the bone marrow of the femur by a pumping action and the cells and medium were collected. 1 ml of the cells in medium was added to a 75 cm^2 flask with 15 mls of DC medium. The flasks were then incubated at 37° C., 5% CO2 to allow DC growth and development. After 5 days an additional 10 mls of DC medium was added.
After 10 days of incubation of bone marrow with GM-CSF, the dendritic cells were harvested. This process was carried out in a tissue culture hood. The contents of the flasks were poured into centrifuge tubes to ensure collection of floating DCs. Approximately 10 mls of cooled phosphate buffered saline (PBS) was added to each empty flask, the flasks gently agitated and the contents collected. […] The collected contents of the flasks were centrifuged for 5 minutes at 200 g and the pellet resuspended in 2 mls of DC medium without GM-CSF. A cell count was then carried out.
Cells were counted using a haemocytometer. Approximately 20 μl of the resuspended cells was pipetted into the chamber of the haemocytometer, the cells were adjusted to the correct cell concentration (approx. 5×10^4, and not less than 1×10^4, per well) and then plated out for assay.
The plates were incubated overnight at 37° C. with 5% CO2 and allowed to settle (harvesting stimulates them). The next day the compounds (50 μg/ml and 20 μg/ml) and controls were added then again incubated at 37° C. with 5% CO2 for 24 hrs (or 48 hrs). Harvesting and addition of the compounds was all done in a hood. The plates were then frozen to kill the cells and once defrosted the supernatant analysed as described below.
Using an enzyme linked immunosorbent assay (ELISA) IL-12 concentration in the supernatants was measured. All reagents used in this assay were from PharMingen. A 96-well flat-bottomed ELISA plate was coated with purified rat anti-mouse IL-12 (p40/p70) MAb (Cat no. 554478) at 2 μg/ml diluted in PBS pH 9.0 at 50 μl/well. The plate was then covered in cling film and incubated at 4° C. Following incubation the plate was washed 3 times in washing buffer and dried. 200 μl of blocking buffer (10% foetal calf serum in PBS pH 7.0) was added to each well then covered in cling film and incubated at 37° C. for 45 minutes. The plate was washed 3 times and dried. Recombinant mouse Il-12 standard was added at 30 μl in duplicate wells, starting at 10 ng/ml then 5, 2.5, 1.25, 0.625, 0.31, 0.156, 0.078, 0.039, 0.020, 0.010, 0.005 ng/ml. Standards were diluted in blocking buffer. The supernatant samples were added in at 50 μl/well. The plate was then covered in cling film and incubated for 2 hours at 37° C. The plate was then washed 4 times, dried and the secondary antibody added.
Biotin labelled anti-mouse IL-12 (p40/p70) MAb (Cat no. 18482D) at 1 μg/ml (diluted in blocking buffer) was added to each well at a volume of 100 μl/well. The plate was covered in cling film and incubated at 37° C. for 1 hour. The plate was then washed 5 times, dried and the conjugate added. Streptavidin-AKP (Cat no. 13043E) at 100 μl/well was added at a dilution of 1/2000 in blocking buffer followed by incubation under cling film at 37° C. for 45 minutes.
The plate was finally washed 6 times, dried and the substrate added. pNPP (Sigma) in glycine buffer at 1 mg/ml was added at 100 μl/well. The plate was then covered in tinfoil, incubated at 37° C. and checked every 30 minutes for a colour change.
The plate was then read at 405 nm using a SPECTRAmax 190 spectrometer.

B16-F10 tumour cells = assay: Control of lung metastasis in mice; type: in vivo, Mice (C57/bl6); conditions: 50 mg/kg s/c on days 2 and 4; lungs on day 14
Protocol: Mice (C57/bl6 under i/p ketamine anaesthesia) were challenged i/v (tail vein) with 5×10^4 B16-F10 tumour cells in a final volume of 100 μl per mouse on day 0. Test compounds (50 mg/kg in 200 μl sterile non-pyrogenic saline) were administered s/c (right flank) on days 2 and 4. On day 14 the mice were sacrifices and the lungs dissected and stained in Indian ink solution (150 ml bidistilled water, 30 ml India Ink, 4 drops NH4OH) for 10 minutes then fixed for at least 24 hr in Fakete's solution (90 ml 37% formaldehyde, 900 ml 70% EtOH and 45 ml glacial acetic acid). The metastases in the stained and fixed lungs could then be visualized, counted and photographed.

β-D-glucosidase = assay: Glycosidase inhibition, β-D-glucosidase; type: biochemical, Almonds (Prunus sp.); conditions: for % inhibition glucosidase: 1 mg/ml
Protocol: (§1) All enzymes were purchased from Sigma, as were the appropriate p-nitrophenyl substrates. Assays were carried out in microtitre plates. Enzymes were assayed in 0.1 M citric acid/0.2M di-sodium hydrogen phosphate (McIlvaine) buffers at the optimum pH for the enzyme. All assays were carried out at 20° C. For screening assays the incubation assay consisted of 10 μl of enzyme solution, 10 μl of inhibitor solution (made up in water) and 50 μl of the appropriate 5 mM p-nitrophenyl substrate (3.57 mM final conc.) made up in McIlvaine buffer at the optimum pH for the enzyme.
(§2) The reactions were stopped with 0.4M glycine (pH 10.4) during the exponential phase of the reaction, which was determined at the beginning of the assay using blanks with water, which were incubated for a range of time periods to measure the reaction rate using 5 mM substrate solution. Endpoint absorbances were read at 405 nm with a Biorad microtitre plate reader (Benchmark). Water was substituted for the inhibitors in the blanks.

β-D-galactosidase = assay: Glycosidase inhibition, β-D-galactosidase; type: biochemical, Bovine liver; conditions: 1 mg/ml; second galactosidase line
Protocol: as §1, §2

Naringinase = assay: Glycosidase inhibition, Naringinase; type: biochemical, Penecillium decumbens; conditions: 1 mg/ml
Protocol: as §1, §2

[2] = tested on: N-acetyl-β-D-glucosaminidase; assay: Glycosidase inhibition, N-acetyl-β-D-glucosaminidase; type: biochemical, Bovine kidney; conditions: 1 mg/ml
Protocol: as §1, §2

α-D-glucosidase [3] = assay: Glycosidase inhibition, α-D-glucosidase (Bacillus); type: biochemical, Bacillus stearothermophilus; conditions: 1 mg/ml
Protocol: as §1, §2

[4] = tested on: spleen cells from Leishmania major infected BALB/c mice; assay: Non-healing leishmaniasis model: splenocyte IL-5; type: cell-based
Spleen cells = assay: Cytokine modulation in spleen cells: splenocyte IFN-γ production; type: cell-based, BALB/c mice; conditions: for IFN-γ: splenocytes
Protocol: BALB/c male and female mice bred and maintained at the University of Strathclyde under conventional conditions were used at varying age.
The mouse spleen was removed aseptically and placed in a sterile petri dish containing 5 mls of complete medium (RPMI, 1% L-Glutamine, 1% Penicillin/Streptomycin and 10% foetal calf serum). Cells suspensions were prepared by using the end of a syringe and grinding the spleen through a wire mesh. The cell suspension was then centrifuged at 1000 rpm for 5 minutes. To remove the erythrocytes, the cell pellet was resuspended in Boyle's solution (Tris 0.17M & Ammonium Chloride 0.16M) and centrifuged again for 5 minutes. The pellet was then washed in medium a further two times, then resuspended in 3 mls medium. A cell count was then carried out.
All spleen cell experiments were carried out in 96-well tissue culture plates. […] Unstimulated wells contained 100 μl of cells and 100 μl of medium. The stimulated wells contained 100 μl of cells plus 50 μl of LPS at 1 μg/ml or 50 μl anti-CD3 at 0.5 μg/ml and 50 μl of medium. The remaining wells contained 100 μl cells, 50 μl of MNLP compound and either 50 μl of anti-CD3 or medium alone.
The appropriate Mabs and standards were used according to the protocol described for IL-12 (described in Example 1, above).

[5] = tested on: spleen cells from Leishmania major infected BALB/c mice; assay: Non-healing leishmaniasis model: splenocyte IFN-γ; type: cell-based; conditions: for IFN-γ: Table 10.1
[6] = tested on: glycosidase enzymes of Table 4.1; assay: Glycosidase inhibition, all enzymes tested (Table 4.1); type: biochemical; conditions: 1 mg/ml; result in words
Protocol: as §1, §2

Dendritic cells [7] = type: cell-based, BALB/c mice
Protocol: Bone marrow was obtained from the femurs of mice. The femurs were washed in 70% ethanol and placed in a clean petri dish. Dendritic cell (DC) medium (2.5% granulocyte-macrophage colony-stimulating factor (GM-CSF), 10% heat and activated foetal calf serum, 1% L-glutamine, 1% Penicillin/Streptomycin in RPMI-1640 medium) was injected into the bone marrow of the femur by a pumping action and the cells and medium were collected. 1 ml of the cells in medium was added to a 75 cm^2 flask with 15 mls of DC medium. The flasks were then incubated at 37° C., 5% CO2 to allow DC growth and development. After 5 days an additional 10 mls of DC medium was added.
After 10 days of incubation of bone marrow with GM-CSF, the dendritic cells were harvested. This process was carried out in a tissue culture hood. The contents of the flasks were poured into centrifuge tubes to ensure collection of floating DCs. Approximately 10 mls of cooled phosphate buffered saline (PBS) was added to each empty flask, the flasks gently agitated and the contents collected. This ensured recovery of adhesive DCs. […]
Cells were counted using a haemocytometer. […]
The plates were incubated overnight at 37° C. with 5% CO2 and allowed to settle (harvesting stimulates them). […] The plates were then frozen to kill the cells and once defrosted the supernatant analysed as described below.

α-D-glucosidase [8] = molecular target: T1, α-D-glucosidase (Saccharomyces cerevisiae, UniProt P53341); assay: Glycosidase inhibition, α-D-glucosidase (yeast); type: biochemical, Saccharomyces cerevisiae (Baker's yeast); conditions: at a concentration of 800 μM
T1 construct: purchased Sigma
Protocol: as §1, §2

[9] = molecular target: T2, rabbit small intestine sucrase (Oryctolagus cuniculus, UniProt P07768); assay: Inhibition of rabbit small intestine sucrase; type: biochemical; conditions: at a concentration of 700 μM
T2 construct: from tissue; host or cells: rabbit small intestine

[10] = tested on: Na^+-dependent D-glucose uptake into ovine intestinal brush border membrane vesicles; assay: Effect on glucose transport (competition assay with labelled D-glucose); type: biochemical
[11] = molecular target: rabbit gut mucosa α-D-glucosidase; assay: Inhibition of rabbit gut mucosa α-D-glucosidase; type: biochemical
α-mannosidase = conditions: background statement; cited from earlier work

T1 sequence (P53341 whole entry): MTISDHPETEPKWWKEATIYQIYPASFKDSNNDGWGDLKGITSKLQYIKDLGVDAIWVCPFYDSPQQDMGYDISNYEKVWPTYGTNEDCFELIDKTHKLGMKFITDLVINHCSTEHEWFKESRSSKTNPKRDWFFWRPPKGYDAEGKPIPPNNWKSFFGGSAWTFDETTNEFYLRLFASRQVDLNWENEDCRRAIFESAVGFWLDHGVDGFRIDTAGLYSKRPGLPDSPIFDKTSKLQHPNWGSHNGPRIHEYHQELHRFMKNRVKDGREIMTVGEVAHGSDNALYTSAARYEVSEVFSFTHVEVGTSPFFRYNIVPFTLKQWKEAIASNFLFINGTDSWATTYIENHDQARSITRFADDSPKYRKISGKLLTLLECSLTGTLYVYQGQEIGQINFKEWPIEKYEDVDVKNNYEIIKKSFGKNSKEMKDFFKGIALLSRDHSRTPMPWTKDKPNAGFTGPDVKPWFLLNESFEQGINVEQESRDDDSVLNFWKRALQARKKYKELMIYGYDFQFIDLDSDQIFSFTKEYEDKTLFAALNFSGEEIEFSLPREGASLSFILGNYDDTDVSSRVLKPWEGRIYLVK
T2 sequence (P07768 whole entry): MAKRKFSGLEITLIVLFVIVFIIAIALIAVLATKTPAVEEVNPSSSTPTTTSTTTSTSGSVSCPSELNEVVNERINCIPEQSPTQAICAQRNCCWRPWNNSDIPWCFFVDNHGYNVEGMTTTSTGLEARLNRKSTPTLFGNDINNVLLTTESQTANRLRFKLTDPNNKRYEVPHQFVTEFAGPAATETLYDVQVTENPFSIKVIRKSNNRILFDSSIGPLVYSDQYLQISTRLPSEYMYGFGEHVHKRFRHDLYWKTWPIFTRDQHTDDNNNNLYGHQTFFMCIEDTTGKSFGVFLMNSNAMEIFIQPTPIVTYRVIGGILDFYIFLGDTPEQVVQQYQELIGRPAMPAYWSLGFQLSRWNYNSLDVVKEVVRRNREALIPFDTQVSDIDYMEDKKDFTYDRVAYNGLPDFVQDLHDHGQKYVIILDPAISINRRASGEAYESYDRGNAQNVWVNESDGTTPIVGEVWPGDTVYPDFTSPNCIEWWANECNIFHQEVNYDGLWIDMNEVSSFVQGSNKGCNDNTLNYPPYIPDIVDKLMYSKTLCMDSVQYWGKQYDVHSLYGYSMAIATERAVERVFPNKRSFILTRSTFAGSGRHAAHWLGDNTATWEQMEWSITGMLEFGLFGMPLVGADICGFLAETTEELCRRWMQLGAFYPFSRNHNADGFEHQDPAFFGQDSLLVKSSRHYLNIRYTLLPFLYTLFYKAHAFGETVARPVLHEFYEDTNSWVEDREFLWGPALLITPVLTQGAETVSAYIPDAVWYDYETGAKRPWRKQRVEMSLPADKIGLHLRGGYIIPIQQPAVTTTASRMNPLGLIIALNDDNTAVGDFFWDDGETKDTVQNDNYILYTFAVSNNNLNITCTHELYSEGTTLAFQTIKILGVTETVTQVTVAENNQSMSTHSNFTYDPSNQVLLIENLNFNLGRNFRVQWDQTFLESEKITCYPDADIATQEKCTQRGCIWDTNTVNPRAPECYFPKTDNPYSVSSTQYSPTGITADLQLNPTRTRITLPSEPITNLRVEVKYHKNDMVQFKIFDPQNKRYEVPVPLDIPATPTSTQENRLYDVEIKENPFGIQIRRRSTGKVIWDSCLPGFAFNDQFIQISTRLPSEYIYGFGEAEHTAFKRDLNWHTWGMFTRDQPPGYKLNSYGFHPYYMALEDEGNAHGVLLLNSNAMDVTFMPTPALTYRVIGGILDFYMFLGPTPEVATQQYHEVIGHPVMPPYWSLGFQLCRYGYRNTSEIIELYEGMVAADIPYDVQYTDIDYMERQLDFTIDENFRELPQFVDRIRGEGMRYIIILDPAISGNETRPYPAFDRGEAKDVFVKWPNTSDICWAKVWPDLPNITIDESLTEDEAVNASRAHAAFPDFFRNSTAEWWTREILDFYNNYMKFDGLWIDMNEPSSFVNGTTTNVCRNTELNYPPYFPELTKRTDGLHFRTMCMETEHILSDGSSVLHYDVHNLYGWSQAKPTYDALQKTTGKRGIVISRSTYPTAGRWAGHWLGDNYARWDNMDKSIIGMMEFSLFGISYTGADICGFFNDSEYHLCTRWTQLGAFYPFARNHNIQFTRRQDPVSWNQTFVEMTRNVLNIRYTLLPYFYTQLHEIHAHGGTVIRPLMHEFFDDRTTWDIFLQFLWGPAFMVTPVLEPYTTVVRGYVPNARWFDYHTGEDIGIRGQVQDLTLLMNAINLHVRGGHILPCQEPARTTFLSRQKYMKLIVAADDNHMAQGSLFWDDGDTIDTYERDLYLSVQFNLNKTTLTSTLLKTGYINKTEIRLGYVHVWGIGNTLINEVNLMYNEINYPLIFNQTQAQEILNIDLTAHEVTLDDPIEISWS

OC[C@H]1[C@@H](O)[C@H](O)[C@H]2[C@H](O)[C@@H](O)CN21 [3-epi-casuarine (14), 3-epi-casuarine]
IL-12 RELEASE (Dendritic cells [1]): Yes | Metastatic morphology (B16-F10 tumour cells): Metastasis restricted to apical tip of lung | % inhibition glucosidase (β-D-glucosidase): 56% | % inhibition galactosidase (β-D-galactosidase): 6% | % inhibition Naringinase (Naringinase): 21% | % inhibition N-acetyl-β-gluc [2]: −1% | % inhibition gluc (Bacillus) (α-D-glucosidase [3]): 12%

OC[C@H]1[C@@H](O)[C@H](O)[C@H]2[C@@H](O)[C@@H](O)CN21 [3,7-diepi-casuarine (10), (1R,2R,3S,6S,7R,7aR)-3-(Hydroxymethyl)-1,2,6,7-tetrahydroxypyrrolizidine]
IL-12 RELEASE (Dendritic cells [1]): Yes | IL-5 ([4]; Table 10.2, compound + αCD3): 150 pg/mL | Th2 response (IL-5) ([4]; result in words): suppressing the Th2 response (via downregulation of the Th2 cytokine IL-5) | IFN-γ (Spleen cells; Table 3.1, treatment alone): 0.22 ng/mL | % inhibition glucosidase (β-D-glucosidase): 5% | IFN-γ ([5]; compound + L. major Ag): 5.5 ng/mL | IFN-γ ([5]; treatment alone): ~0.5 ng/mL | IFN-γ (healing Th1 response) ([5]; result in words): enhances IFN-γ | % inhibition Naringinase (Naringinase): 6% | % inhibition N-acetyl-β-gluc [2]: −6% | inhibition of any of the enzymes tested [6]: do not significantly inhibit any of the enzymes tested | IL-2 (units/ml) (Dendritic cells [7]; compound + LPS): 0.69 units/ml | IL-2 (units/ml) (Dendritic cells [7]; treatment alone): 0.00 units/ml | % inhibition gluc (Bacillus) (α-D-glucosidase [3]): −7%

O[C@H]1[C@H](O)[C@@H](O)CN2CC[C@H](O)[C@H]12 [Castanospermine (20), Castanospermine, reference compound]
IL-12 RELEASE (Dendritic cells [1]): No | inhibition of yeast α-D-glucosidase (α-D-glucosidase [8]): not being inhibitory | IFN-γ (Spleen cells; Table 3.2, compound + αCD3): 9.0 ng/mL | IFN-γ (Spleen cells; Table 3.2, treatment alone): <1.0 ng/mL | IFN-γ secretion/production in splenocytes (Spleen cells; result in words): inhibits the production of this cytokine | inhibition of rabbit small intestine sucrase [9]: inhibited | Glucose uptake ([10]; initial rate, control 240): 225 pmol/s/mg | glucose transport ([10]; result in words): slightly inhibited | % inhibition glucosidase (β-D-glucosidase): 88% | Ki (β-D-glucosidase; read-out: Ki with almond 6-D-glucosidase): 9 µM | % inhibition galactosidase (β-D-galactosidase): 16% | % inhibition Naringinase (Naringinase): 39% | % inhibition N-acetyl-β-gluc [2]: 16% | IC50 [11]: 8 µM | % inhibition gluc (Bacillus) (α-D-glucosidase [3]): 6%

O[C@H]1[C@H]2[C@H](O)CCCN2C[C@H]1O [Swainsonine (4), Swainsonine]
IL-12 RELEASE (Dendritic cells [1]): No | IL-12 secretion (Dendritic cells [1]; tested at 50 μg/ml): failed to induce IL-12 secretion | inhibition of α-mannosidase (α-mannosidase): potent and specific inhibitor of α-mannosidase

Source: patent US8557859B2, “Immunomodulatory compositions” (Summit (Wales) Limited, priority 2003, dated 2013)
